Measured values taken from ChEMBL document CHEMBL1150930, “Metabolism of rosmarinic acid in rats” (J Nat Prod, 1998).

Legend:
Parameters in all cases: dose 200 mg/kg, route oral
[1] = tested on: Rattus norvegicus; test: Metabolic stability in Sprague-Dawley rat assessed as urinary excretion of trans-m-coumaric acid level at 200 mg/kg, po after 0 to 36 hrs by HPLC; format: ADME, organism-based, Urine; conditions: in vivo
[2] = tested on: Rattus norvegicus; test: Metabolic stability in Sprague-Dawley rat assessed as urinary excretion of m-hydroxyphenyl-propionic acid level at 200 mg/kg, po after 0 to 12 hrs by HPLC; format: ADME, organism-based, Urine; conditions: in vivo
[3] = tested on: Rattus norvegicus; test: Metabolic stability in Sprague-Dawley rat assessed as urinary excretion of total metabolites at 200 mg/kg, po after 0 to 24 hrs by HPLC; format: ADME, organism-based, Urine; conditions: in vivo
[4] = tested on: Rattus norvegicus; test: Metabolic stability in Sprague-Dawley rat assessed as urinary excretion of trans-ferulic acid 4-O-sulfate level at 200 mg/kg, po after 0 to 8 hrs by HPLC; format: ADME, organism-based, Urine; conditions: in vivo
[5] = tested on: Rattus norvegicus; test: Metabolic stability in Sprague-Dawley rat assessed as urinary excretion of trans-m-coumaric acid level at 200 mg/kg, po after 0 to 72 hrs by HPLC; format: ADME, organism-based, Urine; conditions: in vivo
[6] = tested on: Rattus norvegicus; test: Metabolic stability in Sprague-Dawley rat assessed as urinary excretion of trans-ferulic acid 4-O-sulfate level at 200 mg/kg, po after 0 to 72 hrs by HPLC; format: ADME, organism-based, Urine; conditions: in vivo
[7] = tested on: Rattus norvegicus; test: Metabolic stability in Sprague-Dawley rat assessed as urinary excretion of trans-caffeic acid 4-O-sulfate level at 200 mg/kg, po after 0 to 8 hrs by HPLC; format: ADME, organism-based, Urine; conditions: in vivo
[8] = tested on: Rattus norvegicus; test: Metabolic stability in Sprague-Dawley rat assessed as urinary excretion of trans-caffeic acid 4-O-sulfate level at 200 mg/kg, po after 0 to 12 hrs by HPLC; format: ADME, organism-based, Urine; conditions: in vivo
[9] = Metabolic stability in Sprague-Dawley rat assessed as urinary excretion of unchanged drug level at 200 mg/kg, po after 0 to 8 hrs by HPLC; format: ADME, organism-based; conditions: urine, read-out: Activity
[10] = tested on: Rattus norvegicus; test: Metabolic stability in Sprague-Dawley rat assessed as urinary excretion of trans-caffeic acid 4-O-sulfate level at 200 mg/kg, po after 0 to 36 hrs by HPLC; format: ADME, organism-based, Urine; conditions: in vivo
[11] = tested on: Rattus norvegicus; test: Metabolic stability in Sprague-Dawley rat assessed as urinary excretion of trans-caffeic acid level at 200 mg/kg, po after 0 to 36 hrs by HPLC; format: ADME, organism-based, Urine; conditions: in vivo
[12] = tested on: Rattus norvegicus; test: Metabolic stability in Sprague-Dawley rat assessed as urinary excretion of trans-m-coumaric acid level at 200 mg/kg, po after 0 to 48 hrs by HPLC; format: ADME, organism-based, Urine; conditions: in vivo
[13] = tested on: Rattus norvegicus; test: Metabolic stability in Sprague-Dawley rat assessed as urinary excretion of trans-caffeic acid level at 200 mg/kg, po after 0 to 72 hrs by HPLC; format: ADME, organism-based, Urine; conditions: in vivo
[14] = tested on: Rattus norvegicus; test: Metabolic stability in Sprague-Dawley rat assessed as urinary excretion of m-hydroxyphenyl-propionic acid level at 200 mg/kg, po after 0 to 48 hrs by HPLC; format: ADME, organism-based, Urine; conditions: in vivo
[15] = tested on: Rattus norvegicus; test: Metabolic stability in Sprague-Dawley rat assessed as urinary excretion of trans-caffeic acid 4-O-sulfate level at 200 mg/kg, po after 0 to 4 hrs by HPLC; format: ADME, organism-based, Urine; conditions: in vivo
[16] = tested on: Rattus norvegicus; test: Metabolic stability in Sprague-Dawley rat assessed as urinary excretion of m-hydroxyphenyl-propionic acid level at 200 mg/kg, po after 0 to 8 hrs by HPLC; format: ADME, organism-based, Urine; conditions: in vivo
[17] = tested on: Rattus norvegicus; test: Metabolic stability in Sprague-Dawley rat assessed as urinary excretion of trans-caffeic acid 4-O-sulfate level at 200 mg/kg, po after 0 to 48 hrs by HPLC; format: ADME, organism-based, Urine; conditions: in vivo
[18] = tested on: Rattus norvegicus; test: Metabolic stability in Sprague-Dawley rat assessed as urinary excretion of trans-m-coumaric acid 3-O-sulfate level at 200 mg/kg, po after 0 to 36 hrs by HPLC; format: ADME, organism-based, Urine; conditions: in vivo
[19] = tested on: Rattus norvegicus; test: Metabolic stability in Sprague-Dawley rat assessed as urinary excretion of trans-caffeic acid level at 200 mg/kg, po after 0 to 24 hrs by HPLC; format: ADME, organism-based, Urine; conditions: in vivo
[20] = tested on: Rattus norvegicus; test: Metabolic stability in Sprague-Dawley rat assessed as urinary excretion of total metabolites at 200 mg/kg, po after 0 to 36 hrs by HPLC; format: ADME, organism-based, Urine; conditions: in vivo
[21] = Metabolic stability in Sprague-Dawley rat assessed as urinary excretion of unchanged drug level at 200 mg/kg, po after 0 to 72 hrs by HPLC; format: ADME, organism-based; conditions: urine, read-out: Activity
[22] = tested on: Rattus norvegicus; test: Metabolic stability in Sprague-Dawley rat assessed as urinary excretion of trans-ferulic acid 4-O-sulfate level at 200 mg/kg, po after 0 to 24 hrs by HPLC; format: ADME, organism-based, Urine; conditions: in vivo
[23] = tested on: Rattus norvegicus; test: Metabolic stability in Sprague-Dawley rat assessed as urinary excretion of trans-m-coumaric acid level at 200 mg/kg, po after 0 to 12 hrs by HPLC; format: ADME, organism-based, Urine; conditions: in vivo
[24] = tested on: Rattus norvegicus; test: Metabolic stability in Sprague-Dawley rat assessed as urinary excretion of trans-m-coumaric acid 3-O-sulfate level at 200 mg/kg, po after 0 to 12 hrs by HPLC; format: ADME, organism-based, Urine; conditions: in vivo
[25] = tested on: Rattus norvegicus; test: Metabolic stability in Sprague-Dawley rat assessed as urinary excretion of trans-ferulic acid 4-O-sulfate level at 200 mg/kg, po after 0 to 12 hrs by HPLC; format: ADME, organism-based, Urine; conditions: in vivo
[26] = tested on: Rattus norvegicus; test: Metabolic stability in Sprague-Dawley rat assessed as urinary excretion of m-hydroxyphenyl-propionic acid level at 200 mg/kg, po after 0 to 24 hrs by HPLC; format: ADME, organism-based, Urine; conditions: in vivo

Activity [1]: 0.399% | Activity [2]: 5.252% | Activity [3]: 23.143% | Activity [4]: 0.284% | Activity [5]: 0.413% | Activity [6]: 0.581% | Activity [7]: 0.124% | Activity [8]: 0.139% | dose excreted [9]: 0.077% | Activity [10]: 0.154% | Activity [11]: 0.086% | Activity [12]: 0.413% | Activity [13]: 0.117% | Activity [14]: 18.357% | Activity [15]: 0.038% | Activity [16]: 0.949% | Activity [17]: 0.154% | Activity [18]: 11.778% | Activity [19]: 0.063% | Activity [20]: 30.483% | dose excreted [21]: 0.077% | Activity [22]: 0.538% | Activity [23]: 0.1% | Activity [24]: 0.174% | Activity [25]: 0.462% | Activity [26]: 14.527%
Structure (SMILES): O=C(/C=C/c1ccc(O)c(O)c1)O[C@H](Cc1ccc(O)c(O)c1)C(=O)O [ROSMARINIC ACID]
